“And” between values parts separate entries of the source, which are not always exact repeats. Equal values may be shown once.
Assays:
[1] = target: T1, myeloperoxidase (MPO) (Homo sapiens, UniProt P05164); assay: MPO peroxidation assay (Amplex Red assay); assay type: biochemical
T1 sequence (P05164 49-745): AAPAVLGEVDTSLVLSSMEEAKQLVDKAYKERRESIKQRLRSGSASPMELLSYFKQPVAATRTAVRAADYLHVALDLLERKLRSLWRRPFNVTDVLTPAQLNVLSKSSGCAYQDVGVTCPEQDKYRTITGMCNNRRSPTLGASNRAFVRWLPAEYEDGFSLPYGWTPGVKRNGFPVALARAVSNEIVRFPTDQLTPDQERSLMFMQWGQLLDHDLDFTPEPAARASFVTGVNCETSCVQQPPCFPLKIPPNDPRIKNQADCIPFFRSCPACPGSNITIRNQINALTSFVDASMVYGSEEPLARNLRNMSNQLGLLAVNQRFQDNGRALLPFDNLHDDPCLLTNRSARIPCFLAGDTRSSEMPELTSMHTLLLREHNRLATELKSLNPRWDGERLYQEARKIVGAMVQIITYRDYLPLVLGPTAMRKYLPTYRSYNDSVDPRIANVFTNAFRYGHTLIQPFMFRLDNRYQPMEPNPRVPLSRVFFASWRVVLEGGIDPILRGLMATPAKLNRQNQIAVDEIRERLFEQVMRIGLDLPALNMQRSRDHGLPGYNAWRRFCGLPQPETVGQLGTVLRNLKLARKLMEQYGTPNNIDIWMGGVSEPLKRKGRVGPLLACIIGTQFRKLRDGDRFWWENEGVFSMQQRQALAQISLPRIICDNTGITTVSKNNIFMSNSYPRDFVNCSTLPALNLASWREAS
Method: MPO Peroxidation Assay (Amplex Red Assay)
MPO peroxidation activity was measured in 100 mM KPi (pH 7.4) by utilizing the non-fluorescent reagent Amplex Red (Invitrogen Cat. #A12222) which can be oxidized to the highly fluorescent resorufin. Amplex Red is oxidized by the peroxidase action of MPO to resorufin. […] Enzyme and compound were preincubated for ten minutes at room temperature.
After the ten minute preincubation, 25 μL of an Amplex Red mixture containing 200 μM Amplex Red and 10 mM H2O2 was added to the plate.
(§1) IC50 values were calculated by determining the slope of the linear portion of the kinetic trace (180-540 secs), and using that calculated slope to determine % inhibition occurring at each concentration of inhibitor using the following equation:
(§2) [formula] where A=minimal Y value (activity level of inhibited sample), B=maximal Y value (activity level of uninhibited sample), C=Log IC50, D=Hill Slope, x=concentration of inhibitor. MPO Chlorination Assay (APF Assay)

[2] = target: T1, myeloperoxidase (MPO); assay: MPO chlorination assay (APF assay); assay type: biochemical
Method: as §2
MPO chlorination activity was measured in 100 mM KPi (pH 7.4) by utilizing the non-fluorescent reagent Aminophenyl fluorescein (APF, Invitrogen Cat. #A36003). APF is cleaved by (—OCl) to yield the fluorescent compound fluorescein. […] Enzyme, inhibitor, and chloride were preincubated for ten minutes at room temperature.
After the ten minute preincubation, 25 μL of an APF mixture containing […], 120 mM NaCl and 10 μM H2O2 was added to the plate using the internal dispensing system of a Hammatsu FDSS 6000. […] IC50 values for inhibitors were calculated by taking the slope of the linear portion of the kinetic measurement (20 seconds to ˜80-120 secs).
as §1
[formula] where A=minimal Y value (activity level of inhibited sample), B=maximal Y value (activity level of uninhibited sample), C=Log IC50, D=Hill Slope, x=concentration of inhibitor. EPX Bromination Assay

[3] = MPO peroxidation, 100 mM KPi pH 7.4, ten minute preincubation, read-out: Amplex Red Assay IC50 value
[4] = MPO chlorination, 100 mM KPi pH 7.4, ten minute preincubation, read-out: APF Assay IC50 value
[5] = MPO peroxidation (Amplex Red), ranges given, read-out: MPO peroxidation assay IC50 values (binned)

| Structure (SMILES) | IC50 [1, 3] [nM] | IC50 [2, 4] [nM] | IC50 [1, 5] | further results |
| --- | --- | --- | --- | --- |
| Cc1nn(-c2cccc(F)c2)nc1COc1cc(N)nc2[nH]nnc12 [Example 12, 7-((2-(3-Fluorophenyl)-5-methyl-2H-1,2,3-triazol-4-yl)methoxy)-3H-[1,2,3]triazolo[4,5-b]pyridin-5-amine] | 20 | 80 | – | – |
| COc1cccc(-n2nc(C)c(COc3cc(N)nc4[nH]nnc34)n2)c1 [Example 13, 7-((2-(3-Methoxyphenyl)-5-methyl-2H-1,2,3-triazol-4-yl)methoxy)-3H-[1,2,3]triazolo[4,5-b]pyridin-5-amine] | 30 | 100 | – | – |
| Nc1cc(OCc2cc(-c3ccccc3)no2)c2nn[nH]c2n1 [Example 14, 7-((3-Phenylisoxazol-5-yl)methoxy)-3H-[1,2,3]triazolo[4,5-b]pyridin-5-amine] | – | – | – | IC50 ([1]; Amplex Red Assay IC50 value, MPO peroxidation, 100 mM KPi pH 7.4, ten minute preincubation): 120 nM; IC50 [2]: 120 nM |
| Nc1cc(OCc2cncn2Cc2ccccc2)c2nn[nH]c2n1 [Example 28, 7-((1-Benzyl-1H-imidazol-5-yl)methoxy)-3H-[1,2,3]triazolo[4,5-b]pyridin-5-amine] | 2400 | 1190 | – | – |
| Nc1cc(OCC2COc3ccccc3O2)c2nn[nH]c2n1 (centres unmarked) [Example 32, 7-((2,3-Dihydrobenzo[b][1,4]dioxin-2-yl)methoxy)-3H-[1,2,3]triazolo[4,5-b]pyridin-5-amine] | 610 | 320 | – | – |
| Nc1cc(OCC2COc3ccccc3C2)c2nn[nH]c2n1 (centres unmarked) [Example 34, 7-(Chroman-3-ylmethoxy)-3H-[1,2,3]triazolo[4,5-b]pyridin-5-amine] | 1390 | 790 | – | – |
| COc1cc(-c2nc(COc3cc(N)nc4[nH]nnc34)c(C)o2)ccc1Cl [Example 43, 7-((2-(4-Chloro-3-methoxyphenyl)-5-methyloxazol-4-yl)methoxy)-3H-[1,2,3]triazolo[4,5-b]pyridin-5-amine] | 760 | 1520 | – | – |
| Cc1oc(-c2ccc(S(C)(=O)=O)cc2)nc1CSc1cc(N)nc2[nH]nnc12 [Example 46, 7-((5-Methyl-2-(4-(methylsulfonyl)phenyl)oxazol-4-yl)methylthio)-3H-[1,2,3]triazolo[4,5-b]pyridin-5-amine] | 90 | 470 | – | – |
| Nc1cc(OCc2nn(Cc3ccccc3)c3ccccc23)c2nn[nH]c2n1 [Example 53, 7-((1-Benzyl-1H-indazol-3-yl)methoxy)-3H-[1,2,3]triazolo[4,5-b]pyridin-5-amine] | 80 | 100 | – | – |
| CCc1nn(-c2ccccc2)nc1COc1cc(N)nc2[nH]nnc12 [Example 57, 7-((5-Ethyl-2-phenyl-2H-1,2,3-triazol-4-yl)methoxy)-3H-[1,2,3]triazolo [4,5-b]pyridin-5-amine] | 80 | 320 | – | – |
| Cn1nc(COc2cc(N)nc3[nH]nnc23)cc1-c1ccc(CO)nc1 [Example 103, (5-(3-(((5-amino-3H-[1,2,3]triazolo[4,5-b]pyridin-7-yl)oxy)methyl)-1-methyl-1H-pyrazol-5-yl)pyridin-2-yl)methanol] | – | – | 60 to 150 nM | – |
| Cn1nc(COc2cc(N)nc3[nH]nnc23)cc1-c1ccc(N2CCNCC2)nc1 [Example 104, 7-((1-methyl-5-(6-(piperazin-1-yl)pyridin-3-yl)-1H-pyrazol-3-yl)methoxy)-3H-[1,2,3]triazolo[4,5-b]pyridin-5-amine] | – | – | ≤ 60 nM | – |
| CN1CCN(c2ccc(-c3cc(COc4cc(N)nc5[nH]nnc45)nn3C)cn2)CC1 [Example 105, 7-((1-methyl-5-(6-(4-methylpiperazin-1-yl)pyridin-3-yl)-1H-pyrazol-3-yl)methoxy)-3H-[1,2,3]triazolo[4,5-b]pyridin-5-amine] | – | – | ≤ 60 nM | – |
| CN1CCN(c2ccc(-c3cnc(COc4cc(N)nc5[nH]nnc45)c(F)c3)cn2)CC1 [Example 107, 7-((5-fluoro-6′-(4-methylpiperazin-1-yl)-[3,3′-bipyridin]-6-yl)methoxy)-3H-[1,2,3] triazolo[4,5-b]pyridin-5-amine] | – | – | ≤ 60 nM | – |
| Nc1cc(OCc2ncc(-c3ccc(CO)nc3)cc2F)c2nn[nH]c2n1 [Example 108, (6′-(((5-amino-3H-[1,2,3]triazolo[4,5-b]pyridin-7-yl)oxy)methyl)-5′-fluoro-[3,3′-bipyridin]-6-yl)methanol] | – | – | 60 to 150 nM | – |
| Nc1cc(OCc2cc(-c3ccc(N4CCNCC4)nc3)ncc2F)c2nn[nH]c2n1 [Example 110, 7-((5-fluoro-6′-(piperazin-1-yl)-[2,3′-bipyridin]-4-yl)methoxy)-3H-[1,2,3] triazolo[4,5-b]pyridin-5-amine] | – | – | ≤ 60 nM | – |
| Nc1cc(OCc2cc(-c3ccc(CO)nc3)ncc2F)c2nn[nH]c2n1 [Example 111, (4-(((5-amino-3H-[1,2,3]triazolo[4,5-b]pyridin-7-yl)oxy)methyl)-5-fluoro-[2,3′-bipyridin]-6′-yl)methanol] | – | – | 60 to 150 nM | – |
| Nc1nc(OCc2cccc3occc23)c2nn[nH]c2n1 [Example 112, 7-(Benzofuran-4-ylmethoxy)-3H-[1,2,3]triazolo[4,5-d]pyrimidin-5-amine] | – | – | 60 to 150 nM | – |
| Nc1nc(OCc2cccnc2)c2nn[nH]c2n1 [Example 113, 7-(pyridin-3-ylmethoxy)-3H-[1,2,3] triazolo[4,5-d]pyrimidin-5-amine] | – | – | 60 to 150 nM | – |
| Nc1nc(OCc2cccc3cccnc23)c2nn[nH]c2n1 [Example 114, 7-(quinolin-8-ylmethoxy)-3H-[1,2,3] triazolo[4,5-d]pyrimidin-5-amine] | – | – | 60 to 150 nM | – |
| Nc1nc(OCc2ccc3ncccc3c2)c2nn[nH]c2n1 [Example 115, 7-(quinolin-6-ylmethoxy)-3H-[1,2,3] triazolo[4,5-d]pyrimidin-5-amine] | – | – | 60 to 150 nM | – |
| Nc1nc(OCc2cccc3ncccc23)c2nn[nH]c2n1 [Example 116, 7-(quinolin-5-ylmethoxy)-3H-[1,2,3] triazolo[4,5-d]pyrimidin-5-amine] | – | – | 60 to 150 nM | – |
| COc1ccc(-c2cncc(COc3nc(N)nc4[nH]nnc34)c2)cc1 [Example 118, 7-((5-(4-methoxyphenyl)pyridin-3-yl)methoxy)-3H-[1,2,3]triazolo[4,5-d] pyrimidin-5-amine] | – | – | 60 to 150 nM | – |
| Nc1nc(OCc2cc(Cl)nc(Cl)c2)c2nn[nH]c2n1 [Example 119, 7-((2,6-dichloropyridin-4-yl)methoxy)-3H-[1,2,3]triazolo[4,5-d]pyrimidin-5-amine] | – | – | 60 to 150 nM | – |
| Nc1nc(OCc2ccc(Cl)nc2)c2nn[nH]c2n1 [Example 120, 7-((6-chloropyridin-3-yl)methoxy)-3H-[1,2,3]triazolo[4,5-d]pyrimidin-5-amine] | – | – | 150 to 1000 nM | – |
| Nc1nc(OCc2cn(-c3ccccc3)nn2)c2nn[nH]c2n1 [Example 121, 7-((1-phenyl-1H-1,2,3-triazol-4-yl)methoxy)-3H-[1,2,3]triazolo[4,5-d] pyrimidin-5-amine] | – | – | 60 to 150 nM | – |
| Nc1nc(OCc2ccc(Oc3ccccc3)nc2)c2nn[nH]c2n1 [Example 122, 7-((6-phenoxypyridin-3-yl)methoxy)-3H-[1,2,3]triazolo[4,5-d]pyrimidin-5-amine] | – | – | 60 to 150 nM | – |
| Nc1nc(OCc2csc(-c3cccc(Cl)c3Cl)n2)c2nn[nH]c2n1 [Example 124, 7-((2-(2,3-dichlorophenyl)thiazol-4-yl)methoxy)-3H-[1,2,3]triazolo[4,5-d] pyrimidin-5-amine] | – | – | 60 to 150 nM and 150 to 1000 nM | – |
